This note sets out measurements from patent US11787847B2, “Method of identifying malodor modulating compounds” (FIRMENICH SA, priority 2017, dated 2023).

Assay [1] deals with mouse receptors Olfr1193, Olfr1093, Olfr1097, Olfr166, Olfr169, Olfr738, Olfr742 and human odorant receptor OR4S2. Put plainly: cAMP HTRF dose-response assay, DMTS/DMDS response profiles (Example 5). It counts as cell-based. The settings on record: increasing concentration of compound; relative to butyric acid control. The method, then:
(§1) Functional dose-response experiments were performed to evaluate the level of DMTS activity of the modified cell line expressing individual putative DMTS receptors. Using a cell-based assay, mouse receptor Olfr1193, Olfr1093, Olfr1097, Olrf166, Olfr169, Olfr738 and Olfr742, and human receptor OR4S2 and OR52N5 were tested in an HEK293T cell line wherein the endogenous RTP1 gene has been activated and the odorant receptor chaperone protein was expressed (described in WO2016/201153). The mouse receptor genes were tagged with a Lucy-FLAG®-Rho tag combination and the human receptors were tagged with a Rho-FLAG® tag combination resulting in a tag:receptor fusion protein for the cell based assay. Receptor genes were co-transfected with the canonical olfactory human G-protein alpha subunit Golf gene and were exposed to increasing concentrations of the malodor odorant. Co-expression of the human Golf activates the Gs transduction pathway that leads to an internal cAMP increase upon binding to the appropriate ligand. Odorant-induced activity was detected by measuring the cAMP increase in the cytosol using an Homogeneous Time Resolved Fluorescence (HTRF) based kit (CisBio, cAMP dynamic 2 kit, cat. 62AM4PEJ). […]

For assay [2], the system named is cells that do not express the odorant receptors (HEK293T). Briefly: Mock transfection control experiment (Example 5). In kind it is cell-based. Here is the method: as §1
For another assay, the target named is T1, mouse receptor Olfr1093 (Mus musculus, UniProt B2RR12).
T1 construct: cAMP HTRF
T1 sequence (B2RR12 1-322): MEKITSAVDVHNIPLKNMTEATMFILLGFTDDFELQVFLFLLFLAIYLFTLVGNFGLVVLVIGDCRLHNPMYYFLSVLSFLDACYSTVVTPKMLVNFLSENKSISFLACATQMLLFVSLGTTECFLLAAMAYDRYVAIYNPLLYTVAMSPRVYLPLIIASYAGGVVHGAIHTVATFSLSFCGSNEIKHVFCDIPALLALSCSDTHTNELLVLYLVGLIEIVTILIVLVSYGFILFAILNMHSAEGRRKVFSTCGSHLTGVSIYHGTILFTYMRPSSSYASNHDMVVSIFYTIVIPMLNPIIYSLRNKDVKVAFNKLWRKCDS
Put plainly: cell-based dose-response, cAMP increase by HTRF, HEK293T cells (endogenous RTP1 activated) co-transfected with human Golf, Lucy-FLAG-Rho tagged receptor. The note with it: FIG. 5, Example 5, SEQ ID NO: 4. Here is the method: (§2) Functional dose-response experiments were performed to evaluate the level of DMTS activity of the modified cell line expressing individual putative DMTS receptors. Using a cell-based assay, mouse receptor Olfr1193, Olfr1093, Olfr1097, Olrf166, Olfr169, Olfr738 and Olfr742, and human receptor OR4S2 and OR52N5 were tested in an HEK293T cell line wherein the endogenous RTP1 gene has been activated and the odorant receptor chaperone protein was expressed (described in WO2016/201153). The mouse receptor genes were tagged with a Lucy-FLAG®-Rho tag combination and the human receptors were tagged with a Rho-FLAG® tag combination resulting in a tag:receptor fusion protein for the cell based assay. Receptor genes were co-transfected with the canonical olfactory human G-protein alpha subunit Golf gene and were exposed to increasing concentrations of the malodor odorant. Co-expression of the human Golf activates the Gs transduction pathway that leads to an internal cAMP increase upon binding to the appropriate ligand. Odorant-induced activity was detected by measuring the cAMP increase in the cytosol using an Homogeneous Time Resolved Fluorescence (HTRF) based kit (CisBio, cAMP dynamic 2 kit, cat. 62AM4PEJ). […] The activity levels are reported by the potency of the DMTS induced-response for each receptor as a measure of the EC50 value (the effective concentration at which the receptor responds at its half-maximal activation efficacy level for a given compound).
(§3) Functional dose-response experiments were performed to confirm the DMTS activity on the DMTS receptors identified in Example 2 and to further characterize their response to DMDS. Using the same cell-based assay described in Example 2, mouse receptors Olfr1193, Olfr1093, Olfr1097, Olfr166, Olfr169, Olfr738, Olfr742 and of human odorant receptor OR4S2 were tested with increasing concentration of DMTS, DMDS or butyric acid (control). […] A weak response for OR4S2 and Olfr169 to butyric acid was visible but was too weak to consider butyric acid as a representative ligand for these receptors. The activity levels are reported by the potency of DMTS or DMDS induced-response for each receptor as a measure of the EC50 value, EC50DMTS and EC50DMDS respectively. […] Competitive antagonists at the malodor binding site of these receptors have the potential to reduce the unpleasant perception of both DMTS and DMDS.
(Time-resolved FRET reads energy transfer from a long-lived donor to a nearby acceptor.)

In a further assay the target is T2, mouse receptor Olfr1097 (Mus musculus, UniProt Q8VGA2).
T2 construct: cAMP HTRF
T2 sequence (Q8VGA2 1-315): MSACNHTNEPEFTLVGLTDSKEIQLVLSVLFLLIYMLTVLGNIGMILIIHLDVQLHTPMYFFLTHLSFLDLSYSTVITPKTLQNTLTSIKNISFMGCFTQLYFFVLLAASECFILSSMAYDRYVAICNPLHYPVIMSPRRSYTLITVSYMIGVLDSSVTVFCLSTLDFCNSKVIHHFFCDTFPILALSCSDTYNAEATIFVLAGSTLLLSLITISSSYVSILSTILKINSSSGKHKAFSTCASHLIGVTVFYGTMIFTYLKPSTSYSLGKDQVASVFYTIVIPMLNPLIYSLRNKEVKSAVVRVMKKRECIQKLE
The assay is described as above. The settings on record: FIG. 5, Example 5, SEQ ID NO: 6. The method, then:
as §2, §3

The target in the next assay is T3, mouse receptor Olfr1193 (Mus musculus, UniProt A2AV13).
T3 construct: cAMP HTRF
T3 sequence (A2AV13 1-318): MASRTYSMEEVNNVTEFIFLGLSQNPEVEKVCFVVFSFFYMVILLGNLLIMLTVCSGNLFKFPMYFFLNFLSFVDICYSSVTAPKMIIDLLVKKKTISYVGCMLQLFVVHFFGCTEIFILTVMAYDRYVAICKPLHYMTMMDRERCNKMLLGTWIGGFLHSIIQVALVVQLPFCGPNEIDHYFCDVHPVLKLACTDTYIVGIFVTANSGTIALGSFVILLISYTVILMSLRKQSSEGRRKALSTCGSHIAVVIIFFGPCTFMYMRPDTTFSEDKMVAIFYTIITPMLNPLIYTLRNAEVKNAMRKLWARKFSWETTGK
The assay is described as above. The settings on record: FIG. 5, Example 5, SEQ ID NO: 2. Here is the method:
as §2, §3

The target in a further assay is T4, mouse receptor Olfr166 (Mus musculus, UniProt Q0VEL6).
T4 construct: cAMP HTRF
T4 sequence (Q0VEL6 1-312): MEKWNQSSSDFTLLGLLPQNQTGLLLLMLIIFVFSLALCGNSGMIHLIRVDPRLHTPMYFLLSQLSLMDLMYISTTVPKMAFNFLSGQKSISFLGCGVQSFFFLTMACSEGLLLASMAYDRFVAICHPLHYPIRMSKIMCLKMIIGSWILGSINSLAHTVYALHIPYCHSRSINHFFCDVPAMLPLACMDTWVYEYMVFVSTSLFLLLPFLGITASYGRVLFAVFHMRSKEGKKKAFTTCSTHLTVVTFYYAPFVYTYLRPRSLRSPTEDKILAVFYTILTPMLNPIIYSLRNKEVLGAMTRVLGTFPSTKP
The assay is described as above. The settings on record: FIG. 5, Example 5, SEQ ID NO: 8. Here is the method: as §2, §3

A further assay has as its target T5, mouse receptor Olfr169 (Mus musculus, UniProt Q7TS53).
T5 construct: cAMP HTRF
T5 sequence (Q7TS53 1-313): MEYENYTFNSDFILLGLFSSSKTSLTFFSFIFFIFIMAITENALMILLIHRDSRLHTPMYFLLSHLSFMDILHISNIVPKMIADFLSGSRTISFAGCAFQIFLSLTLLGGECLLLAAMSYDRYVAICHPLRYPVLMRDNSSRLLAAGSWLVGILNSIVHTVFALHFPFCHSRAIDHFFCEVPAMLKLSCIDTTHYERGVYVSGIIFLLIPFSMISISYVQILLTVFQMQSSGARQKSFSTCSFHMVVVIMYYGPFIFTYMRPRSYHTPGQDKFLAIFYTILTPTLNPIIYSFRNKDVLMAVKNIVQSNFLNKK
Described as above. The settings on record: FIG. 5, Example 5, SEQ ID NO: 10. Here is the method: as §2, §3

A further assay concerns the target T6, mouse receptor Olfr738 (Mus musculus, UniProt L7N1X7).
T6 construct: cAMP HTRF
T6 sequence (L7N1X7 1-311): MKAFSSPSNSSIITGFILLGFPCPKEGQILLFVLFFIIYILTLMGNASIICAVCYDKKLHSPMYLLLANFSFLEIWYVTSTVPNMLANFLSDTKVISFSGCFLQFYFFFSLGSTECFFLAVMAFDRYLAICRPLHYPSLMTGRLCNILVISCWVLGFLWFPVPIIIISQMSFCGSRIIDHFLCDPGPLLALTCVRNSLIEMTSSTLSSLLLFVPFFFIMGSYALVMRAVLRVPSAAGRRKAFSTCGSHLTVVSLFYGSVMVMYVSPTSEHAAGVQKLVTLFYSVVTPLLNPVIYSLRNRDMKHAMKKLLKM
The assay is described as above. The note with it: FIG. 5, Example 5, SEQ ID NO: 12. Here is the method:
as §2, §3

For another assay, the target named is T7, mouse receptor Olfr742 (Mus musculus, UniProt A2RTP5).
T7 construct: cAMP HTRF
T7 sequence (A2RTP5 1-311): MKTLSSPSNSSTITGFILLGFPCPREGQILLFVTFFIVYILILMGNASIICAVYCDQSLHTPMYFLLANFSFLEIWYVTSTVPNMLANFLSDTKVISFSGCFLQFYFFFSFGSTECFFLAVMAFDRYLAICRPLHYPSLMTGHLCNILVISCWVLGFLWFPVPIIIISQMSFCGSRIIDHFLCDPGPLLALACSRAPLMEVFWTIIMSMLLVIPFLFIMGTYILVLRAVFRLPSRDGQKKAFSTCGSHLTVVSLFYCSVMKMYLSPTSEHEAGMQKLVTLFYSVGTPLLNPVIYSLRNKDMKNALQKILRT
The assay is described as above. The settings on record: FIG. 5, Example 5, SEQ ID NO: 14. Here is the method: as §2, §3

Assay [3] deals with mouse receptor Olfr1193, Olfr1093, Olfr1097, Olrf166, Olfr169, Olfr738 and Olfr742, and human receptor OR4S2 and OR52N5. Put plainly: cAMP HTRF dose-response assay in HEK293T cells expressing odorant receptors (Example 2). It counts as cell-based. The settings on record: increasing concentrations of odorant, receptors co-transfected with human Golf.
Another assay concerns Olfr169. Put plainly: cAMP HTRF dose-response assay (Example 5), Olfr169. In kind it is cell-based, mouse. The note with it: increasing concentration. The method, then:
as §1

The next assay addresses T8, OR4S2 (Homo sapiens, UniProt Q8NH73).
T8 sequence (Q8NH73 1-311): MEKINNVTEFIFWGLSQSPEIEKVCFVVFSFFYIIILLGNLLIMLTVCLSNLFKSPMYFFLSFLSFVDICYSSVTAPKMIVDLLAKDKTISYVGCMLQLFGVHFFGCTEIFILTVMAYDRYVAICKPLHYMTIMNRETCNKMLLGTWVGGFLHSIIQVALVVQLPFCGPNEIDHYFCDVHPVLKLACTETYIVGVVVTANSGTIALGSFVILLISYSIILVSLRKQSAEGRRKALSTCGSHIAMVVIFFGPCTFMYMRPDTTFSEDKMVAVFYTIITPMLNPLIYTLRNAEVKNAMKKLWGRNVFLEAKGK
Briefly: cAMP HTRF dose-response assay (Example 5), OR4S2. The settings on record: increasing concentration. It counts as cell-based. Also noted: expressed in transfected cells. The method, then:
as §1

A word on the EC50: it is the concentration that produces a half-maximal response.

For the compound `CSSC` [DMDS, dimethyl disulfide], the “receptor activity (cAMP increase)” value in assay [1] is “strong dose-dependent increase of the receptor activity”. The “activity upon exposure in mock transfected cells” value in assay [2] was “did not show activity”. In addition, the EC50 is 458 µM at mouse receptor Olfr1093; 87 µM on mouse receptor Olfr1097; 40 µM on mouse receptor Olfr1193; 12 µM on mouse receptor Olfr166; 102 µM on mouse receptor Olfr169; 355 µM at mouse receptor Olfr738. Further, the EC50 at mouse receptor Olfr742 was found to be 69 µM.
For `CCCC(=O)O` [butyric acid], the “receptor activity (cAMP increase in the cytosol)” value in [3] is reported as “not”. Moreover, the “response to butyric acid (cAMP)” value in the assay on Olfr169 and at OR4S2 was “weak response” throughout.
